Tests used:
LRP1 = assay: Western blot of LRP1 protein level in BLECs; format: cell-based, human; settings: 48 h, 20 mM βHB or ratio, Western blot normalized to β-actin, at least three independent experiments
MCT1 = assay: Western blot of MCT1 protein level in BLECs; format: cell-based, human; settings: 48 h, 20 mM AcAc, 20 mM βHB or ratio (20 mM AcAc/20 mM βHB), Western blot normalized to β-actin, at least three independent experiments
GLUT1 = assay: Western blot of GLUT1 protein level in BLECs; format: cell-based, human; settings: 48 h, 20 mM βHB or ratio, Western blot normalized to β-actin, at least three independent experiments
PC12 cells = PC12 cells exposed in 0–20 mM βHB; cited from earlier work
Source text: For a few years now, there has been an increased focus on the role of the transport of Aβ peptides across the blood–brain barrier (BBB). It appears that increasing the clearance or reducing the entry of Aβ peptides in the brain could be a promising therapeutic approach for counteracting the pathogenic processes observed in AD [52]. In recent years, there has been mounting interest in the possible utilization of a ketogenic diet (KD) or ketone body (KB) supplementations in the treatment of AD [53, 54]. On the basis of KBs’ beneficial effects on the CNS, and the lack of publ ...

[1] = test system: human in vitro BBB model (BLECs); assay: βHB concentration in the compartments of the in vitro BBB model; format: in vitro ADME; settings: 20 mM βHB added apically, 48 h
Method: (§1) During this time, the glucose and βHB concentrations were measured in both the apical compartment and the basolateral compartment. The Precision-Xtra meter (Abbott Labs, Abbott Park, IL, USA) with a glucose or β-ketone sticks was used. In these assays, the glucose and βHB concentrations measured by the sticks were representative of the glucose and βHB present in the culture medium. Data were expressed in mmol·L^−1 for βHB and in g·L^−1 for glucose. The βHB concentration within BLECs was measured at 48 h following the treatment. Briefly, after medium removal, BLECs were washed twice with RH buffer and lysed with RIPA lysis buffer (Millipore Corporation, Burlington, MA, USA). The βHB concentration in the BLECs was normalized by the protein amount using Bradford assay (Bio-rad, Munich, Germany). The amount of βHB into the supernatant was assayed using β-ketone sticks, as described above. The βHB concentration was verified in the culture medium without cells at 37 °C and 5% CO2 to ensure the stability of βHB.

PICALM = assay: Western blot of PICALM protein level in BLECs; format: cell-based, human; settings: 48 h, 20 mM βHB or ratio, Western blot normalized to β-actin, at least three independent experiments
[2] = Stability of βHB in culture medium; format: physicochemical; settings: 37 °C, 5% CO2, over 48 h, β-ketone sticks
Method: as §1

BLEC monolayer = BLEC monolayer integrity: endothelial permeability to Lucifer Yellow (PeLY); format: cell-based, human
Method: No significant pH variation was observed after KB treatment compared to the control. The integrity of the BLEC monolayer after 48 h of treatment with KBs was evaluated using the method described by Dehouck et al. (1992). Each coculture condition was performed in triplicate. The fluorescent integrity marker LY was used at a final concentration of 50 μM in RH buffer to obtain the endothelial permeability coefficient (Pe) from the apical-to-basolateral compartment. The fluorescence of LY in each compartment was measured using the excitation/emission wavelength (432/538 nm) using a microplate reader (Synergy H1). In this calculation method, both the filter without cell permeability (PSf = insert filter + matrigel coating) and filter plus cell permeability (PSt = insert filter + matrigel coating + ECs) were taken into account, according to the formula: 1/PSe = 1/[…] PS is the permeability x surface area product (in microliters per minute) obtained by dividing the volume cleared from the donor to the receiver compartment (in μL) for 1 h. […] balance (%) was calculated from the amount of compound recovered in the donor and receiver compartment at the end of the experiment divided by the total amount added in the donor compartment at time zero. To be taken into account for Pe determination, the mass balance should be between 80% and 120%.

BLECs = assay: Immunofluorescence of tight junction proteins ZO-1 and claudin-5; format: cell-based, human; settings: 48 h treatment
Method: After 48 h of treatments with or without KBs, BLECs were fixed and permeabilized as described in Table 1. Then, a 30-min blocking with PBS-CMF (0.2 g·L^−1 KH2PO4 , 8.0 g·L^−1 NaCl, 2.87 g·L^−1 Na2HPO4-12H2O, and 0.2 g·L^−1 KCl) with 10% (v/v) normal goat serum (NGS) was performed. Then, cells were incubated for 60 min with the primary antibody in PBS-CMF supplemented with 2% NGS at room temperature (RT), against the target protein as described in Table 1.
After three washes in PBS-CMF supplemented with 2% NGS, the cells were incubated with secondary polyclonal antibody (goat anti-rabbit Alexa 568, A11036, Molecular Probes, Eugene, OR, USA) diluted 1:500 in PBS-CMF supplemented with 2% NGS in the dark for 30 min at RT. Hoechst 33358 was used for nuclei staining. After mounting with Mowiol (Sigma-Aldrich) containing 1,4-diazabicyclo [2.2.2]octane (Sigma-Aldrich), images were taken using a Leica microscope (DMRD; Leica Microsystems, Wetzlar, Germany) and processed using ImageJ32 software.

[3] = test system: [3H]inulin transport across BLECs; assay: [3H]inulin transport across BLECs (non-specific transport marker); format: cell-based, human; settings: 400 nM [3H]inulin, 30 min, 37 °C; for effect on basolateral-to-apical transport of [3H]inulin after ratio KB treatment: 48 h ratio treatment, 200 nM RAP basolateral or 0.5 µM elacridar apical
Method: Forty-eight hours after KB treatments, the apical-to-basolateral and the basolateral-to-apical transport of Aβ1-40 across BLECs was investigated as previously described (Briefly, for apical-to-basolateral studies, filters were transferred to new 12-well plates containing 1.5 mL of RH-HSA 0.1% (the receiver solution) per well. In the insert corresponding to the apical compartment, 0.5 mL of RH-HSA 0.1% supplemented with 10 nM Aβ1-40Cy5 peptide was added (the donor solution). For basolateral-to-apical studies, filters were transferred to 12-well plates containing 1.5 mL of RH-HSA 0.1% supplemented with 10 nM fluorescent Aβ1-40Cy5 (the donor solution). In the apical compartment, 0.5 mL of RH-HSA 0.1% (the receiver solution) was added. In parallel, the apical-to-basolateral and the basolateral-to-apical transport of 400 nM [^3H]inulin was performed in the same way as the Aβ1-40Cy5 peptide transport, thus representing a paracellular marker. The BBB integrity was checked by measuring the PeLY as described in Section 4.6. […] At the end of the incubation period, aliquots of the donor and receiver solutions were collected, and the fluorescence compounds (Aβ1-40Cy5 and LY) were measured with a spectrofluorimeter (Synergy H1). The radioactivity of [^3H]inulin was measured using a scintillation counter (Hidex 300 SL, Hidex, Turku, Finland). The permeability (apparent permeability coefficient, cm.sec^−1) of Aβ1-40-Cy5 or [^3H]-inulin was calculated according to the following equation: (1) Papp = (k.V(R))/(A.60) as previously described. k was the transport rate (min^−1) defined as the slope obtained by linear regression of the cumulative fraction absorbed (FAcum) as a function of time (min), V(R) was the volume in the receiver chamber (mL), and A was the area of the filter (cm^2). Determination of the cumulative fraction absorbed (amount permeated), FAcum versus time, FAcum was calculated from: (2) FAcum = ∑ (C(Ri))/(C(Di)), where C(Ri) was the receiver concentration at the end of the interval i and C(Di) was the donor concentration at the beginning of interval i. […]

[4] = test system: Aβ1–40Cy5 peptide transport across BLECs; assay: Aβ1–40Cy5 peptide transport across BLECs; format: cell-based, human; settings: 48 h ratio treatment; 200 nM RAP in basolateral compartment (LRP1 inhibitor) or 0.5 µM elacridar in apical compartment (P-gp inhibitor); 10 nM Aβ1–40Cy5, 30 min, 37 °C
Method: Forty-eight hours after KB treatments, the apical-to-basolateral and the basolateral-to-apical transport of Aβ1-40 across BLECs was investigated as previously described (Briefly, for apical-to-basolateral studies, filters were transferred to new 12-well plates containing 1.5 mL of RH-HSA 0.1% (the receiver solution) per well. In the insert corresponding to the apical compartment, 0.5 mL of RH-HSA 0.1% supplemented with 10 nM Aβ1-40Cy5 peptide was added (the donor solution). For basolateral-to-apical studies, filters were transferred to 12-well plates containing 1.5 mL of RH-HSA 0.1% supplemented with 10 nM fluorescent Aβ1-40Cy5 (the donor solution). […] At the end of the incubation period, aliquots of the donor and receiver solutions were collected, and the fluorescence compounds (Aβ1-40Cy5 and LY) were measured with a spectrofluorimeter (Synergy H1). The radioactivity of [^3H]inulin was measured using a scintillation counter (Hidex 300 SL, Hidex, Turku, Finland). […] Determination of the cumulative fraction absorbed (amount permeated), FAcum versus time, FAcum was calculated from: (2) FAcum = ∑ (C(Ri))/(C(Di)), where C(Ri) was the receiver concentration at the end of the interval i and C(Di) was the donor concentration at the beginning of interval i. […] The apical-to-basolateral and the basolateral-to-apical Papp were determined by Equation (1) for each molecule. […]

CC(O)CC(=O)O (stereo not drawn) [βHB, Beta-hydroxybutyric acid]
upregulation of LRP1 protein level compared to the control (LRP1): 109.3%
increase of MCT1 protein level compared to the control (MCT1): 24.9%
increase of GLUT1 protein level compared to the control (GLUT1): 51.9%
cell viability (PC12 cells): 95%
βHB concentration in the BLEC [1]: ~ 0.5 mM
βHB concentration in the apical compartment [1]: ~ 8.5 mM
βHB concentration in the basolateral compartment [1]: ~ 6.6 mM
initially added βHB not detectable ([1]; 37 °C, 5% CO2): 21.4%
βHB in BLECs, % of the total amount of βHB ([1]; 37 °C, 5% CO2, RIPA lysate, β-ketone sticks, mean of three independent experiments): 2.4%
βHB in the apical (luminal) compartment, % of the total amount of βHB ([1]; 37 °C, 5% CO2, β-ketone sticks (Precision-Xtra meter), mean of three independent experiments): 42.9%
βHB in the basolateral (abluminal) compartment, % of the total amount of βHB ([1]; 37 °C, 5% CO2, β-ketone sticks, mean of three independent experiments): 33.3%
increase of PICALM protein level compared to the control (PICALM): 39.1%
stability of βHB in the culture medium [2]: stable

OC[C@@H](O)[C@@H](O)[C@H](O)[C@H](O)CO [mannitol]
increase in PeLY values compared to non-treated cells (BLEC monolayer; mannitol treatment of the human in vitro BBB model, p-value ≤ 0.0001): 620.6%
staining of tight junction proteins ZO-1 and claudin-5 (intercellular contacts) (BLECs): interruption in the staining for ZO-1 and claudin-5 protein

CC(=O)CC(=O)O [AcAc, acetoacetate]
increase of MCT1 protein level compared to the control (MCT1): 35.9%
decrease in PeLY compared to the control (BLEC monolayer; 20 mM, 48 h treatment of BLECs, p-value ≤ 0.0001): 14.6%
decrease of apical-to-basolateral [3H]inulin transport ([3]; after 48 h 20 mM AcAc, scintillation counting, p-value = 0.0005): 12.9%

Lucifer Yellow CH dilithium salt
endothelial lucifer yellow permeability (PeLY), control conditions (BLEC monolayer; untreated BLECs, LY 50 µM in RH buffer, apical-to-basolateral, 1 h, fluorescence 432/538 nm, mean ± SEM, three independent experiments in triplicate): 0.92 ± 0.03 × 10^−3 cm∙min^−1

COc1cc2c(cc1OC)CN(CCc1ccc(NC(=O)c3cccc4c(=O)c5cccc(OC)c5[nH]c34)cc1)CC2 [elacridar, Elacridar, reference compound]
effect on the increased basolateral-to-apical Aβ1–40Cy5 peptide transport after ratio KB treatment [4]: abolished
effect on basolateral-to-apical transport of [3H]inulin after ratio KB treatment [3]: not affected

B1: RAP: Receptor-associated protein, human, recombinant, E.coli; standard inhibitor for LRP1 (protein, UniProt P30533 35-357, looked up)
Alpha-2-macroglobulin …: YSREKNQPKPSPKRESGEEFRMEKLNQLWEKAQRLHLPPVRLAELHADLKIQERDELAWKKLKLDGLDEDGEKEARLIRNLNVILAKYGLDGKKDARQVTSNSLSGTQEDGLDDPRLEKLWHKAKTSGKFSGEELDKLWREFLHHKEKVHEYNVLLETLSRTEEIHENVISPSDLSDIKGSVLHSRHTELKEKLRSINQGLDRLRRVSHQGYSTEAEFEEPRVIDLWDLAQSANLTDKELEAFREELKHFEAKIEKHNHYQKQLEIAHEKLRHAESVGDGERVSRSREKHALLEGRTKELGYTVKKHLQDLSGRISRARHNEL
effect on the increased basolateral-to-apical Aβ1–40Cy5 peptide transport after ratio KB treatment [4]: abolished
effect on basolateral-to-apical transport of [3H]inulin after ratio KB treatment [3]: not affected
